Experimental data from patent US4590264A, “Lipoglycosides and process of extracting same” (Wofor AG, priority 1983, dated 1986).
Entries after “also recorded” stand apart in the source; their conditions may differ.

Assays:
[1] = test system: tumor cells derived from human carcinoma of the nasopharynx (KB cells); test: KB cell assay: cytotoxicity, cell count (alive, dead) after 48 h incubation; format: cell-based; conditions: for Cell count after incubation, dead / Cell count after incubation, alive: cell count before incubation = 100, Table 3; for Cell count after incubation, dead: control 0; for Cell count after incubation, alive: control 200
Method: The plant is subjected to extraction in various solvents having different polarities (i.e. dielectric constants) at room temperature for a period of from 1 to 10 days. By room temperature, it is meant from about 20° C. to about 25° C. The extract-containing solvents are each tested for their biological activity. As a measure of biological activity, the cytotoxicity of the extracts against tumor cells derived from human carcinoma of the nasopharynx (KB cells) is measured. Those extracts which show the capability of killing KB cells are fractionated to yield the compounds of the present invention.
A sample of cells was taken from a stock supply furnished by a well known commercial laboratory. The primary culture was Minimal Essential Medium (MEM), Flo Laboratories, 10% fetal calf serum. Trypsinization was conducted with 0.2% trypsin in isotonic NaCl. The cells were counted with 0.1% Tripan Blue. The cells were subcultured in a 5 to 1 split in microtiter plates at 2×10^5 cells per well. The volume of culture placed in each well was 1 ml. The cells were counted at three locations before the addition of the extract to yield an average cell count.
Each of the extracts to be tested was added to the cells at a specific concentration as an ethanolic solution. The cells were incubated at 37° C. for 48 hours. Thereafter, the cells were again counted at three locations to provide an average cell count.
As a control, a cell sample was incubated for the same period in culture medium and without the addition of any plant extract.
Each of the extracts obtained above was tested for its effect on KB cells. The cell culture assay protocol described above was used.

[2] = Solubility in solvents; format: physicochemical; conditions: solvents as named in the value

Compound	Cell count after incubation, dead ([1]; 10 μg/ml)	Cell count after incubation, alive ([1]; 10 μg/ml)	Cell count after incubation, dead ([1]; 100 μg/ml)	Cell count after incubation, alive ([1]; 100 μg/ml)	activity against KB cells / antitumor activity (in words) [1]	Solubility (in words) [2]
CCC1CCCCCCCCCCCCCCCCCCC(=O)OC[C@H]2O[C@@H](O1)[C@H](OC(C)=O)[C@@H](O)[C@@H]2O (stereo partly shown) [Compound I]	0	15	0	0	active; also recorded: possess antitumor properties	Soluble in CHCl3, methanol; also recorded: Sparingly soluble in acetyl ethyl ether and acetone; also recorded: Insoluble in ethyl ether and petroleum ether
CCC1CCCCCCCCCCCCCCCCCCC(=O)OC[C@H]2O[C@@H](O1)[C@H](O)[C@@H](OC(C)=O)[C@@H]2O (stereo partly shown) [Compound II]	0.5	104.5	0	0	active; also recorded: possess antitumor properties	soluble in CH2 Cl2 and benzene but insoluble in methanol and ether; also recorded: Insoluble in methanol, ethyl ether
CCC(O)CCCCCCCCCCCCCCCCCCC(=O)OC (stereo not shown) [Example 5, 20-hydroxydocosanoic acid methyl ester]	–	–	–	–	–	soluble in n-hexane, benzene and chloroform but insoluble in methanol and acetone
